Data from patent US4464385A, “Treatment of diabetic complications with hydantoins” (Alcon Laboratories, Inc., priority 1982, dated 1984).

Legend:
[1] = target: T1, aldose reductase enzyme obtained from human placenta (Homo sapiens, UniProt P15121); assay: Inhibition of partially purified aldose reductase from human placenta; assay type: biochemical; conditions: for IC50: HUMAN, human placenta enzyme, read-out: IC50 (concentration of drug that inhibits 50% of the enzyme activity)
T1 construct: partially purified aldose reductase enzyme obtained from rat lens or human placenta; from tissue; host or cells: human placenta
Description: The spiro-hydantoin compounds of Preparations C and D were tested for their ability to reduce or inhibit aldose reductase enzyme activity via the procedures of P. F. Kador et. al. as described in Biophysical Chemistry, 8 (1978) 81-85 and P. F. Kador et. al. as described in Documenta Ophthamologicia, 18 (1979) 117. In every case the […] employed was partially purified aldose reductase enzyme obtained from rat lens or human placenta.

[2] = system: membrane bound cytochrome containing oxidoreductase enzymes; assay: In vivo conversion of the methylthio group to methylsulfinyl; conditions: enzymes common to liver, kidney and lung
[3] = target: T2, aldose reductase enzyme obtained from rat lens (Rattus norvegicus, UniProt P07943); assay: Inhibition of partially purified aldose reductase from rat lens; assay type: biochemical; conditions: read-out: IC50 (concentration of drug that inhibits 50% of the enzyme activity)
T2 construct: partially purified aldose reductase enzyme obtained from rat lens; from tissue; host or cells: rat lens
Excerpt: In every case the substrate employed was partially purified aldose reductase enzyme obtained from rat lens or human placenta.

Compound	IC50 [1] [nM]	in vitro inhibition of human placental aldose reductase ([1]; in vitro)	conversion of methylthio group to methylsulfinyl derivative [2]	IC50 [3] [nM]
C[S+]([O-])c1ccc2c(c1)C1(CCO2)NC(=O)NC1=O (centres unmarked) [D, spiro-(6-methylsulfinylchroman-4,4'-imidazolidine)-2',5'-dione]	12000	inhibit human placental aldose reductase	–	–
dl-spiro-(6-methylthio-chroman-4,4'-imidazolidine)-2',5'-dione	660	–	converted to the methylsulfinyl derivative	270
